The values that follow come from patent US20240417405A1, “Substituted Spiro Derivatives” (Janssen Pharmaceutica NV, priority 2021, published 2024).

Where two headings read alike, the source gives them in different places. Bounds are passed on as bounds.

The target in assay [1] is T1, menin/MLL (terbium chelate-labeled menin, FITC-MBM1 peptide) (Homo sapiens, UniProt O00255, T541A).
T1 construct: Menin (a.a 1-610-6xhis tag)
T1 sequence (O00255 with tags, fused parts or gaps T541A): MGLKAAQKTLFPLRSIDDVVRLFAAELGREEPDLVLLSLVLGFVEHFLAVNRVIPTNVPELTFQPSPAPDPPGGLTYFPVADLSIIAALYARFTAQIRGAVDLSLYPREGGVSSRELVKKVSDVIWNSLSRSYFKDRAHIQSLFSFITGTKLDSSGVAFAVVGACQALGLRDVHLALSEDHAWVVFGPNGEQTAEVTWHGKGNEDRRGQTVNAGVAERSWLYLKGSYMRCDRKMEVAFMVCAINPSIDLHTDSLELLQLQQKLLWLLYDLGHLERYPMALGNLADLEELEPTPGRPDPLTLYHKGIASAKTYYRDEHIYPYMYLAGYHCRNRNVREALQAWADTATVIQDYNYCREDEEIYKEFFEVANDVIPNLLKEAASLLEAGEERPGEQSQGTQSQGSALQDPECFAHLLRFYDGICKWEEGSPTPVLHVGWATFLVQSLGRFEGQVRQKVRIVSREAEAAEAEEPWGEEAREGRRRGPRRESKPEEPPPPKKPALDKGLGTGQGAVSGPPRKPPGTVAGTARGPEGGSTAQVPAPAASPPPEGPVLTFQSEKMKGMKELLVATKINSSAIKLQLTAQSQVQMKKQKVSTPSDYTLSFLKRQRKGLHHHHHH
The assay can be described thus: Menin/MLL homogenous time-resolved fluorescence (HTRF) assay. The assay is classed as binding. Particulars: 30 min incubation. A digest of the protocol:
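Terbium-labeled menin (aa 1-610, His-tagged; 200 pM) preincubated 30 min with compound, then 75 nM FITC-MBM1 peptide added for 15 min at ambient temperature in pH 7.5 Tris buffer, 0.5% DMSO. HTRF ratio 520/490 nm converted to % inhibition. IC50 came from an 11-point four-fold titration from 10 μM, floor 0.1 nM.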

For another assay, the system named is KO-52 cells. The assay can be described thus: Proliferation assay, spheroid-like growth, KO-52 (MLL wildtype control cell line). The class given is cell-based, human. The settings on record: Homo sapiens, 192 h, KO-52 control cells, 8 days, confluence as measure of spheroid size; read-out: spheroid assay_OneTime KO-52 IC50. The method, then: The anti-proliferative effect of menin/MLL protein/protein interaction inhibitor test compounds was assessed in human leukemia cell lines. The cell line MOLM14 harbors a MLL translocation and expresses the MLL fusion proteins MLL-AF9, respectively, as well as the wildtype protein from the second allele. […] KO-52 was used as a control cell line containing two MLL (KMT2A) wildtype alleles in order to exclude compounds that display general cytotoxic effects.
MOLM14 cells were cultured in RPMI-1640 (Sigma Aldrich) supplemented with 10% heat-inactivated fetal bovine serum (HyClone), 2 mM L-glutamine (Sigma Aldrich) and 50 μg/ml gentamycin (Gibco). KO-52 cell lines were propagated in alpha-MEM (Sigma Aldrich) supplemented with 20% heat-inactivated fetal bovine serum (HyClone), 2 mM L-glutamine (Sigma Aldrich) and 50 μg/ml gentamycin (Gibco).
In order to assess the anti-proliferative effects, 200 MOLM14 cells, or 300 KO-52 cells were seeded in 200 μl media per well in 96-well round bottom, ultra-low attachment plates (Costar, catalogue number 7007). Cell seeding numbers were chosen based on growth curves to ensure linear growth throughout the experiment. Test compounds were added at different concentrations and the DMSO content was normalized to 0.3%. Cells were incubated for 8 days at 37° C. and 5% CO2. Spheroid like growth was measured in real-time by live-cell imaging (IncuCyteZOOM, Essenbio, 4× objective) acquiring images at day 8. Confluence (%) as a measure of spheroid size was determined using an integrated analysis tool.
In order to determine the effect of the test compounds over time, the confluence in each well as a measure of spheroid size, was calculated. Confluence of the highest dose of a reference compound was used as baseline for the LC (Low control) and the confluence of DMSO treated cells was used as 0% cytotoxicity (High Control, HC).
Absolute IC50 values were calculated as percent change in confluence as follows:
LC=Low Control: cells treated with e.g. 1 μM of the cytotoxic agent staurosporin, or e.g. cells treated with a high concentration of an alternative reference compound
GraphPad Prism (version 7.00) was used to calculate the IC50. Dose-response equation was used for the plot of % Effect vs Log 10 compound concentration with a variable slope and fixing the maximum to 100% and the minimum to 0%.

A further assay deals with MOLM14 cells. The assay can be described thus: Proliferation assay, spheroid-like growth, MOLM14 (MLL-AF9 rearranged). The assay is classed as cell-based, human. The settings on record: 8 days, confluence as measure of spheroid size, read-out: spheroid assay_OneTime MOLM14 IC50. An outline of the steps:
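Cells seeded in ultra-low attachment round-bottom wells (200 MOLM14 or 300 KO-52 per well) with compound at several concentrations, DMSO 0.3%, grown 8 days at 37° C, 5% CO2. Spheroid size taken as confluence from day-8 live-cell images; IC50 from variable-slope fit, DMSO as 0% and high-dose reference compound as 100% effect.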

One may read the IC50 as the point on the concentration scale where inhibition reaches its midpoint. As to `CC(C)[C@@H]([C@H]1C[C@@H](N2CCC(S(C)(=O)=O)CC2)C1)N1CC2(CCN(c3ncnnc3Oc3ccc(F)cc3-c3ncncc3C3CC3)C2)C1` (single isomer, unassigned) [Compound 98], the IC50 is 0.4 nM in assay [1]; 4350 nM in the assay on KO-52 cells; 58 nM in the assay with MOLM14 cells (Homo sapiens, MOLM-14, 192 h).

`CC1CN([C@H]2C[C@@H]([C@H](C(C)C)N3CC4(CCN(c5ncnnc5Oc5ccc(F)cc5-c5cncnc5C5CC5)C4)C3)C2)CCC1O` (single isomer, unassigned) [Compound 87]: the IC50 in assay [1] is 1.9 nM; in the assay on KO-52 cells, > 15000 nM; with MOLM14 cells (Homo sapiens, MOLM-14, 192 h), 820 nM.

Take `CC(C)[C@H]([C@H]1C[C@@H](N2CCC3(CCCO3)C2)C1)N1CC2(CCN(c3ncnnc3Oc3ccc(F)cc3-c3nnccc3C3CC3)C2)C1` (single isomer, unassigned) [Compound 271]: the IC50 in assay [1] was 2.4 nM; in the assay with KO-52 cells, > 15000 nM; with MOLM14 cells (Homo sapiens, MOLM-14, 192 h), 260 nM.

On to `CC(C)[C@H]([C@H]1C[C@@H](N2CCOCC2)C1)N1CC2(CCN(c3ncnnc3Oc3ccc(F)cc3-c3cncnc3C3CC3)C2)C1` (single isomer, unassigned) [Compound 208], for which the IC50 in assay [1] is 0.3 nM; with KO-52 cells it was 9130 nM; in the assay on MOLM14 cells (Homo sapiens, MOLM-14, 192 h) it was 29 nM.

Consider `CC(C)[C@@H]([C@H]1C[C@@H](N2C[C@H]3COC[C@H]3C2)C1)N1CC2(CCN(c3ncnnc3Oc3ccc(F)cc3-c3ncncc3C3CC3)C2)C1` (single isomer, unassigned) [Compound 97], for which the IC50 came out at 0.1 nM in assay [1]; 310 nM in the assay with KO-52 cells; 3 nM in the assay on MOLM14 cells (Homo sapiens, MOLM-14, 192 h).

Regarding `CC(C)C([C@H]1C[C@@H](Nc2ccnc(N)n2)C1)N1CC2(CCN(c3ncnnc3Oc3ccc(F)cc3-c3cncnc3C3CC3)C2)C1` (stereo partly drawn) [Compound 434], the IC50 came out at 0.08 nM in assay [1]; 2000 nM in the assay on KO-52 cells; 2.9 nM with MOLM14 cells (Homo sapiens, MOLM-14, 192 h).

As for `CC(C)C([C@H]1C[C@@H](N2CCCCC2)C1)N1CC2(CCN(c3ncnnc3Oc3ccc(F)cc3-c3cncnc3C3CC3)C2)C1` (stereo partly drawn) [Compound 135], the IC50 in assay [1] was determined as 0.3 nM; in the assay with KO-52 cells, 1000 nM; in the assay with MOLM14 cells (Homo sapiens, MOLM-14, 192 h) it was 8 nM.

For `CC(=O)N1CCN([C@H]2C[C@@H]([C@@H](C(C)C)N3CC4(CCN(c5ncnnc5Oc5ccc(F)cc5-c5cnncc5C5CC5)C4)C3)C2)CC1` (single isomer, unassigned) [Compound 80], the IC50 in assay [1] is 43.2 nM; in the assay with KO-52 cells it was > 15000 nM; with MOLM14 cells (Homo sapiens, MOLM-14, 192 h), > 940 nM.

Consider `CC(C)[C@H]([C@H]1C[C@@H](NC(=O)C2CC2)C1)N1CC2(CCN(c3ncnnc3Oc3ccc(F)cc3-c3ncccc3C3CC3)C2)C1` (single isomer, unassigned) [Compound 27], for which the IC50 in assay [1] worked out at 0.1 nM; in the assay on KO-52 cells, 5560 nM; with MOLM14 cells (Homo sapiens, MOLM-14, 192 h), 36 nM.

With `CC(C)[C@H]([C@H]1C[C@@H](N2CCC(S(=O)(=O)C(C)C)CC2)C1)N1CC2(CCN(c3ncnnc3Oc3ccc(F)cc3-c3cncnc3C3CC3)C2)C1` (single isomer, unassigned) [Compound 209], the IC50 in assay [1] came to 0.3 nM; in the assay with KO-52 cells, 5260 nM; with MOLM14 cells (Homo sapiens, MOLM-14, 192 h), 16 nM.

As for `CC(C)[C@H](C1CCN(CC2COC2)CC1)N1CC2(CCN(c3ncnnc3Oc3ccc(F)cc3-c3cnc(C#N)nc3C3CC3)C2)C1` (single isomer, unassigned) [Compound 333], the IC50 was 0.1 nM in assay [1]; 820 nM in the assay with KO-52 cells; 38 nM with MOLM14 cells (Homo sapiens, MOLM-14, 192 h).

Consider `COC1CN([C@H]2C[C@@H]([C@@H](C(C)C)N3CC4(CCN(c5ncnnc5Oc5ccc(F)cc5-c5cncnc5C5CC5)C4)C3)C2)CC1OC` (single isomer, unassigned) [Compound 236], for which the IC50 in assay [1] is 0.2 nM; in the assay on KO-52 cells, 2250 nM; in the assay with MOLM14 cells (Homo sapiens, MOLM-14, 192 h) it was 4 nM.

Take `O=c1cc(C2CC2)c(-c2cc(F)ccc2Oc2nncnc2N2CCC3(C2)CN([C@@H](C2CCN(CC4COC4)CC2)C24CC(C2)C4)C3)n[nH]1` (single isomer, unassigned) [Compound 339]: the IC50 is 0.4 nM in assay [1]; > 15000 nM in the assay with KO-52 cells; > 940 nM with MOLM14 cells (Homo sapiens, MOLM-14, 192 h).

With `CC(C)C([C@H]1C[C@@H](N2CC(O)C2)C1)N1CC2(CCN(c3ncnnc3Oc3ccc(F)cc3-c3cncnc3C3CC3)C2)C1` (stereo partly drawn) [Compound 125], the IC50 stood at 0.1 nM in assay [1]; 5300 nM with KO-52 cells; 12 nM in the assay with MOLM14 cells (Homo sapiens, MOLM-14, 192 h).

As for `CC(C)C(C1CCN(CC2COC2)CC1)N1CC2(CCN(c3ncnnc3Oc3ccc(F)cc3-c3cncnc3C3CC3)C2)C1` (stereo not drawn) [Compound 6], the IC50 in assay [1] amounted to 0.3 nM; in the assay on KO-52 cells, 6470 nM; in the assay on MOLM14 cells (Homo sapiens, MOLM-14, 192 h) it was 280 nM.

Turning to `CC(=O)N1CC2CN([C@H]3C[C@H]([C@@H](C(C)C)N4CC5(CCN(c6ncnnc6Oc6ccc(F)cc6-c6cncnc6C6CC6)C5)C4)C3)CC2C1` (single isomer, unassigned) [Compound 65], the IC50 in assay [1] was 0.2 nM; in the assay on KO-52 cells, 11800 nM; with MOLM14 cells (Homo sapiens, MOLM-14, 192 h), 130 nM.

Consider `CC(C)C([C@H]1C[C@@H](N)C1)N1CC2(CCN(c3ncnnc3Oc3ccc(F)cc3-c3cncnc3C3CC3)C2)C1` (single isomer, unassigned) [Compound 1a], for which the results for the IC50 (in assay [1]; with KO-52 cells; in the assay with MOLM14 cells) were 0.1 nM, > 15000 nM and 20 nM, respectively.

As for `CC(C)[C@H]([C@H]1C[C@@H](N2CCCCC2)C1)N1CC2(CCN(c3ncnnc3Oc3ccc(F)cc3-c3cncnc3C3CC3)C2)C1` (single isomer, unassigned) [Compound 48], the IC50 in assay [1] turned out to be 0.3 nM; in the assay with KO-52 cells, 1060 nM; in the assay on MOLM14 cells (Homo sapiens, MOLM-14, 192 h), 4 nM.

Consider `CO[C@H]1CCN([C@H]2C[C@H]([C@H](C(C)C)N3CC4(CCN(c5ncnnc5Oc5ccc(F)cc5-c5cnncc5C5CC5)C4)C3)C2)C1` (single isomer, unassigned) [Compound 109], for which the IC50 in assay [1] is 0.1 nM; with KO-52 cells, > 15000 nM; with MOLM14 cells (Homo sapiens, MOLM-14, 192 h), 53 nM.

In the case of `COCC(=O)N[C@H]1C[C@@H]([C@@H](C(C)C)N2CC3(CCN(c4ncnnc4Oc4ccc(F)cc4-c4cncnc4C4CC4)C3)C2)C1` (single isomer, unassigned) [Compound 299], the IC50 in assay [1] was determined as 0.2 nM; in the assay on KO-52 cells, 8350 nM; in the assay on MOLM14 cells (Homo sapiens, MOLM-14, 192 h), 34 nM.

On to `CC(C)[C@H]([C@H]1C[C@@H](N2CCC[C@H](F)C2)C1)N1CC2(CCN(c3ncnnc3Oc3ccc(F)cc3-c3cncnc3C3CC3)C2)C1` (single isomer, unassigned) [Compound 200], for which the IC50 in assay [1] came out at 0.1 nM; with KO-52 cells, 9710 nM; in the assay with MOLM14 cells (Homo sapiens, MOLM-14, 192 h) it was 16 nM.
